Experimental data: PMC5566973 (Frontiers in Pharmacology, 2017)

Tests used:
human MDR1 = target: T1, human MDR1 (Homo sapiens, UniProt P08183); test: Vesicular transport assay, Sf9 membrane vesicles expressing human MDR1; assay type: in vitro ADME; settings: probe at 5 μM
T1 construct: purchased GenoMembrane (Kanagawa, Japan); host or cells: Sf9
Experimental: (§1) The vesicular transport assay was implemented as described in the GenoMembrane™ vesicular transport kit protocol (GenoMembrane, Kanagawa, Japan) with minor changes. Briefly, vesicle stocks were thawed and diluted with assay buffer (50 mM MOPS-Tris, 70 mM KCl, and 7.5 mM MgCl2). […] MgAMP instead of MgATP was used as a control. Apart from these, 4 mM glutathione was also included in BCRP and MRP2 assays. Transport was terminated with ice cold assay buffer, and then samples were quickly transferred to a filter plate. Wells were immediately washed 5 times with 200 μL assay buffer and dried. The vesicles on the plate were dissolved in 50 μL of 80% methanol and centrifuged at 2,000 rpm for 2 min after collection, and repeating the above procedures. Mixed the two filtrates together and added the pre-cooled methanol. After centrifugation at 12,000 rpm for 5 min at 4°C, a 5 μL aliquot of supernatant was injected into the UPLC-ESI-MS/MS system for analysis. Furthermore, the uptake of NMQ (MDR1), LY (BCRP), and E217βG (MRP2) was used to evaluate the activity of specific vesicles.

[1] = Urinary and fecal excretion in rats; assay type: in vivo, Sprague-Dawley rats; settings: for Cumulative excretion of the analyte, SUM of urine and feces: within 72 h
Experimental: Access to water was maintained all the time. Samples including blank urine and feces before dosing, urine and feces from 0 to 24 h, 24 to 48 h, and 48 to 72 h after dosing were collected and stored at −80°C until analysis.
Urine samples were thawed and an aliquot of 100 μL was processed for detection as described in Section Drug Analysis. Feces were homogenized and then weighed, added 6-folds of acetonitrile, extracted by ultrasonic wave for 1 h and then centrifuged. An aliquot of 100 μL was also processed for detection as described in Section Drug Analysis.

human MRP2 = target: T2, human MRP2 (Homo sapiens, UniProt Q92887); test: Vesicular transport assay, Sf9 membrane vesicles expressing human MRP2; assay type: in vitro ADME; settings: probe at 50 μM
T2 construct: purchased GenoMembrane (Kanagawa, Japan); host or cells: Sf9
T2 sequence (Q92887 whole entry): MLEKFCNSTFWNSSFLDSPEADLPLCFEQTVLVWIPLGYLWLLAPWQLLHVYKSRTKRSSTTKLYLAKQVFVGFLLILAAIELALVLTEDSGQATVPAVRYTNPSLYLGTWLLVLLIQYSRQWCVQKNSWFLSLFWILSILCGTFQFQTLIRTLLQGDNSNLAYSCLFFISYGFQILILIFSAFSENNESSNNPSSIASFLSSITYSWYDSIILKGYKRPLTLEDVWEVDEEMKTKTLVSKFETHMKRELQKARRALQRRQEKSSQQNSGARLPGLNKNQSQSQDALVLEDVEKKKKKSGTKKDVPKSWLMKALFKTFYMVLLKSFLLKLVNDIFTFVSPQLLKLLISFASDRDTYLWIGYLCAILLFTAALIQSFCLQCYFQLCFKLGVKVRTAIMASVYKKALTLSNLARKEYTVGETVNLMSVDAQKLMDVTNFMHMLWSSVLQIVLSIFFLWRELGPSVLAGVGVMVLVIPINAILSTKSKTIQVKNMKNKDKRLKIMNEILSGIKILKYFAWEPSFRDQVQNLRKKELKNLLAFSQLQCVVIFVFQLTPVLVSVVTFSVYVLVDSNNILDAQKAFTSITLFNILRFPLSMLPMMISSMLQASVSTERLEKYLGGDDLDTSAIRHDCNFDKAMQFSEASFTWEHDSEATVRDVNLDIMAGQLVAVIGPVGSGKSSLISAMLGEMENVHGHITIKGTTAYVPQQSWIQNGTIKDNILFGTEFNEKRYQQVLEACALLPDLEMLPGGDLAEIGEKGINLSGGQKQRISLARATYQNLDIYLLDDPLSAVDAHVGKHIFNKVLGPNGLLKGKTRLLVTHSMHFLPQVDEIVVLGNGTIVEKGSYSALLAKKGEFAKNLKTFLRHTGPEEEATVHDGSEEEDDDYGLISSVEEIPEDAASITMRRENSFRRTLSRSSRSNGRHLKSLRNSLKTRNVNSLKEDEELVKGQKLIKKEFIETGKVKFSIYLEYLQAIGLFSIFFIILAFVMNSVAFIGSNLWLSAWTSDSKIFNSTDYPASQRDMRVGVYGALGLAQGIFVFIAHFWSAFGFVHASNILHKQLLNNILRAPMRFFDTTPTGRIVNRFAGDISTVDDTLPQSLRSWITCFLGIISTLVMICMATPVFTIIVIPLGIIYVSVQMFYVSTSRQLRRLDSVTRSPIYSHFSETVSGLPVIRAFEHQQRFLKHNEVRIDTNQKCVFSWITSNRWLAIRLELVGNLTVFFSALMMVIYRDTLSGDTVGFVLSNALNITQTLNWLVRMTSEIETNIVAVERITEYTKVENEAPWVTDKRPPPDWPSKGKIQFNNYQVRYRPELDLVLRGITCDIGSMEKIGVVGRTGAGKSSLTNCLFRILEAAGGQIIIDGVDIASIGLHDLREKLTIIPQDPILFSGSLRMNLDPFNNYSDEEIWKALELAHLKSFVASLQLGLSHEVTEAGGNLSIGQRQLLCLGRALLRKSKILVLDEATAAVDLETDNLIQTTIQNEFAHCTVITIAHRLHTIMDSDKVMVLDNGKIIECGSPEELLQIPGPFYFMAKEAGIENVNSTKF
Experimental: as §1

Caco-2 cell monolayers = settings: transcellular flux marker; ref Shen et al., 2015; cited from earlier work
human BCRP = target: T3, human BCRP (Homo sapiens, UniProt Q9UNQ0); test: Vesicular transport assay, Sf9 membrane vesicles expressing human BCRP; assay type: in vitro ADME; settings: 10 μM, MgATP vs MgAMP
T3 construct: purchased GenoMembrane (Kanagawa, Japan); host or cells: Sf9
T3 sequence (Q9UNQ0 1-655): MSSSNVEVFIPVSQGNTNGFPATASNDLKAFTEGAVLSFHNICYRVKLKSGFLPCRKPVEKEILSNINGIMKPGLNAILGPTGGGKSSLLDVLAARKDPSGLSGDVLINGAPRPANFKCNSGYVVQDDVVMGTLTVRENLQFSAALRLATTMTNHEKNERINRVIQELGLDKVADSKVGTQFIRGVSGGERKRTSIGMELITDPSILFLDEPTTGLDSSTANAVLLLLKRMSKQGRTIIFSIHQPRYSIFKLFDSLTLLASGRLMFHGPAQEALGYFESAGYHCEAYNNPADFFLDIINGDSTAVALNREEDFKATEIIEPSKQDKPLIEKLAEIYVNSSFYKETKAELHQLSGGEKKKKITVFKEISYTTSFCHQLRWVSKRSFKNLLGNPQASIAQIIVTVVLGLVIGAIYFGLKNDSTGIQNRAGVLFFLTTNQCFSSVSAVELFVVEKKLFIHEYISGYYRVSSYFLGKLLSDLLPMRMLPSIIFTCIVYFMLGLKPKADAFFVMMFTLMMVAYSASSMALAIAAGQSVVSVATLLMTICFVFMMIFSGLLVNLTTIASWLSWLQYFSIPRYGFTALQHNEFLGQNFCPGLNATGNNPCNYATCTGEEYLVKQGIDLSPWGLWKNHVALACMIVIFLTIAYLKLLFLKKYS
Experimental: as §1

[2] = after oral harmaline 40.0 mg/kg, 24 h
[3] = after oral harmaline 40.0 mg/kg, 48 h
[4] = after oral harmaline 40.0 mg/kg, 72 h
[5] = after oral harmaline 40.0 mg/kg
[6] = after oral harmine 40.0 mg/kg, 24 h
[7] = after oral harmine 40.0 mg/kg, 48 h
[8] = after oral harmine 40.0 mg/kg, 72 h

T1 sequence (P08183 whole entry): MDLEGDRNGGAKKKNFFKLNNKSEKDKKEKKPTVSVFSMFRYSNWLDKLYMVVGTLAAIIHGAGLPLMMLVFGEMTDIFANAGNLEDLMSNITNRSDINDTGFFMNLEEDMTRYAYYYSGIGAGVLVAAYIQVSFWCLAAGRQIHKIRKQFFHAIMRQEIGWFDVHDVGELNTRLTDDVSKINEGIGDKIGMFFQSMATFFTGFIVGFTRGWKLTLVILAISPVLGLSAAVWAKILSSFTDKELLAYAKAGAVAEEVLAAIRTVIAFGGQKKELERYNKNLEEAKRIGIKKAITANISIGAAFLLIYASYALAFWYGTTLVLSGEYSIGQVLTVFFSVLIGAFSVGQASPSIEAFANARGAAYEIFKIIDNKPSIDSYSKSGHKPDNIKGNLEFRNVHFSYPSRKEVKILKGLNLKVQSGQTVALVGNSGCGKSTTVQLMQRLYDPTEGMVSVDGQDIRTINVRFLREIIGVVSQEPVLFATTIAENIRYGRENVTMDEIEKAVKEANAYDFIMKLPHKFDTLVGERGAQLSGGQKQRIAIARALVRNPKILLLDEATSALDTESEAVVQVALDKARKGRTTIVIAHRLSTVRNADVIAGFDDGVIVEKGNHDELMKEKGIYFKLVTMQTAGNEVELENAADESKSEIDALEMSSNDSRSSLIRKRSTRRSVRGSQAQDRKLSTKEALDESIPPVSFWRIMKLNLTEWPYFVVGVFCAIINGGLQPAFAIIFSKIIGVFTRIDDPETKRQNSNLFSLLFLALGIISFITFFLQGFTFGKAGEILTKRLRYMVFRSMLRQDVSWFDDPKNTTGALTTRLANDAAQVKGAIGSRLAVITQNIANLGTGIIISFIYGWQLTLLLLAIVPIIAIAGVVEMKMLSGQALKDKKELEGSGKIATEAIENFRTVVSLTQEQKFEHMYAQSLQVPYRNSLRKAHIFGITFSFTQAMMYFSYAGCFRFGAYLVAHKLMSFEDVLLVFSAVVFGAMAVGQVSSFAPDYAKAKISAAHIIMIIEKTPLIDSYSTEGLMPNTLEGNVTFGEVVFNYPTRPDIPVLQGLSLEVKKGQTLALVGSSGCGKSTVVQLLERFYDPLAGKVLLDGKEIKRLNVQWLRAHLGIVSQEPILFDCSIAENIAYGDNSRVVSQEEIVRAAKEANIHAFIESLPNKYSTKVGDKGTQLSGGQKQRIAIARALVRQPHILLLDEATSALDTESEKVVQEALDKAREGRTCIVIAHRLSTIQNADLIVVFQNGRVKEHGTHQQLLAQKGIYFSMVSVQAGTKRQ

Row | Molecule | Cumulative excretion in feces (%) of the analyte [1, 2] [%] | Cumulative excretion in urine (%) of the analyte [1, 2] [%] | Cumulative excretion in feces (%) of the analyte [1, 3] [%] | Cumulative excretion in urine (%) of the analyte [1, 3] [%] | Cumulative excretion in feces (%) of the analyte [1, 4] [%] | Cumulative excretion in urine (%) of the analyte [1, 4] [%] | Cumulative excretion of the analyte, SUM of urine and feces [1, 5] [%] | other results
1 | C=C[C@H]1C[N+]2(C)CC[C@H]1C[C@@H]2[C@@H](O)c1ccnc2ccc(OC)cc12 [NMQ, N-methylquinidine, reference compound] |  |  |  |  |  |  |  | uptake ratio (UR) (human MDR1): 2.05
2 | Cc1[nH]ccc2c1[nH]c1cc(=O)ccc12 [Harmol] | 1.24 ± 0.51 | 0.23 ± 0.42 | 1.64 ± 0.73 | 0.50 ± 0.55 | 1.70 ± 0.75 | 0.65 ± 0.56 | 2.35 ± 0.91 | Cumulative excretion in feces (%) of the analyte [1, 6]: 5.66 ± 2.96%; Cumulative excretion in urine (%) of the analyte [1, 6]: 2.51 ± 2.82%; Cumulative excretion in feces (%) of the analyte [1, 7]: 7.69 ± 3.33%; Cumulative excretion in urine (%) of the analyte [1, 7]: 4.63 ± 4.53%; Cumulative excretion in feces (%) of the analyte [1, 8]: 8.38 ± 3.47%; Cumulative excretion in urine (%) of the analyte [1, 8]: 5.42 ± 5.19%; Cumulative excretion of the analyte, SUM of urine and feces ([1]; after oral harmine 40.0 mg/kg): 13.80 ± 5.71%
3 | C[C@]12CC[C@@H]3c4ccc(O)cc4CC[C@H]3[C@@H]1CC[C@@H]2O[C@@H]1O[C@H](C(=O)O)[C@@H](O)[C@H](O)[C@H]1O [E217βG, estradiol-17 β-glucuronide, reference compound] |  |  |  |  |  |  |  | uptake ratio (UR) (human MRP2): 7.71
4 | CC(C)NCC(O)COc1cccc2ccccc12 (stereo not shown) [propranolol, reference compound] |  |  |  |  |  |  |  | PappAB (Caco-2 cell monolayers): 41.90 ± 3.30 × 10^−6 cm/s
5 | lucifer yellow [LY, reference compound] |  |  |  |  |  |  |  | uptake ratio (UR) (human BCRP): 19.66
6 | CC1=NCCc2c1[nH]c1cc(O)ccc21 [Harmalol] | 1.73 ± 1.01 | 1.16 ± 0.81 | 1.87 ± 1.04 | 2.03 ± 2.12 | 1.89 ± 1.04 | 2.30 ± 2.36 | 4.18 ± 2.67 | 
